Source: patent US9597407B2, “Targeted antimicrobial moieties” (C3 Jian, Inc., priority 2009, dated 2017)
Entries after “also recorded” stand apart in the source; their conditions may differ.

Key:
[1] = system: bacteria; test: Binding of targeting peptides to microorganisms (Table 3); settings: preferably 1x PBS
[2] = system: microorganisms; test: Morphology, biofilm and growth disruption by peptides (Table 5); assay type: cell-based; set-up: key: A: Peptide aggregates; B: Less hyphal formation; Clumps; Diffuse clumps and small polyps; F: Diffuse growth; H: Thin; I: Growth inhibition; Microcolony formation; Rippled; Small polyps; Thick; W: Halo formation on top, microlonies on bottom
Excerpt: In certain embodiments peptides that induce alterations in phenotype or other biological activities can also be used as antimicrobial effector moieties.

[3] = peptide binding in aqueous buffers that varied depending on peptide solubility
[4] = microorganism bound by the targeting peptide, binding in aqueous buffers chosen by peptide solubility
[5] = peptide binding in aqueous buffers varied by peptide solubility
[6] = microorganism the targeting peptide binds, binding in aqueous buffers that varied with peptide solubility

Substance: PF-675 (chain 1 EIIPISPTRRCEMHTMSSAEYRGL; chain 2 EIIPISPTRRCEMHTMSSAEYRGL; Peptide with targeting and/or antimicrobial activity)
- Target(s) (microorganism bound by the targeting peptide) [1, 3]: Mycobacteria spp
- Organism, effect (morphology, biofilm and growth disruption) ([2]; E. faecalis): E. faecalis (R)
- Organism, effect (morphology, biofilm and growth disruption) ([2]; S. pneumoniae): S. pneumoniae (C)

Substance: PF-171 (TQVTLCRTW; Peptide with targeting and/or antimicrobial activity)
- Target(s) [1, 4]: S. epidermidis; also recorded: E. coli; also recorded: P. aeruginosa; also recorded: S. pneumoniae
- Organism, effect ([2]; B. subtilis): B. subtilis (D)
- Organism, effect ([2]; C. jejuni): C. jejuni (R)
- Organism, effect ([2]; M. luteus): M. luteus (R)
- Organism, effect ([2]; MRSA): MRSA (M)
- Organism, effect ([2]; S. epidermidis): S. epidermidis (R)
- Organism, effect ([2]; S. pneumoniae): S. pneumoniae (D)

Substance: 1T-62 (GCKGCAQRDPCAEPEPYFRLR; Peptide with targeting and/or antimicrobial activity) [Peptide 1T-62]
- Target(s) (microorganism bound by the targeting peptide) [1, 5]: S. epidermidis; also recorded: P. aeruginosa

Substance: PF-496 (EVTKRLVALAQQQLRG; Peptide with targeting and/or antimicrobial activity)
- Target(s) (microorganisms bound by the targeting peptide) [1, 3]: S. mutans; also recorded: E. coli

Substance: PEIIKIVSGLL [PF-758]
- Target(s) (microorganism bound by the targeting peptide) [1, 3]: S. epidermidis and M. luteus and E. coli and MRSA and S. pneumoniae and E. faecalis and C. jeikeium

Substance: PF-731 (RHKLIRLPLSESVFCFLNNPKI; Peptide with targeting and/or antimicrobial activity)
- Target(s) (microorganism bound by the targeting peptide) [1, 3]: L. pneumophila

Substance: 1T-93 (AMRSVNQA; Peptide with targeting and/or antimicrobial activity) [Peptide 1T-93]
- Target(s) (microorganism bound by the targeting peptide) [1, 5]: S. epidermidis; also recorded: S. gordonii; also recorded: S. mitis; also recorded: S. mutans; also recorded: S. oralis; also recorded: S. sanguinis

Substance: PF-263 (NLKKCPC; Peptide with targeting and/or antimicrobial activity)
- Target(s) [1, 4]: S. epidermidis; also recorded: M. luteus; also recorded: A. baumannii

Substance: MKKLVAALAVIVILTGCVYDPVNYDKIHDQEFQDHLRQNG [PF-252]
- Target(s) [1, 4]: S. mutans

Substance: PF-508 (VSTFGKVVKVVDEK; Peptide with targeting and/or antimicrobial activity)
- Target(s) (microorganisms bound by the targeting peptide) [1, 3]: S. mutans

Substance: 1T-258 (TINIDDKVLDYLKKINSKAITIDLIGCAS; Peptide with targeting and/or antimicrobial activity) [Peptide 1T-258]
- Target(s) [1, 6]: A. naeslundii; also recorded: F. nucleatum; also recorded: P. gingivalis; also recorded: T. denticola; also recorded: S. mitis; also recorded: S. mutans; also recorded: S. oralis

Substance: 1T-40 (QRVSLWSEVEHEFR; Peptide with targeting and/or antimicrobial activity) [Peptide 1T-40]
- Target(s) (microorganism bound by the targeting peptide) [1, 5]: S. mutans; also recorded: P. aeruginosa

Substance: 1T-114 (RQAPGPGLVTITAACSAPGSRSR; Peptide with targeting and/or antimicrobial activity) [Peptide 1T-114]
- Target(s) (microorganism bound by the targeting peptide) [1, 5]: A. naeslundii; also recorded: P. gingivalis; also recorded: S. epidermidis; also recorded: S. gordonii; also recorded: S. mitis; also recorded: S. mutans; also recorded: S. oralis; also recorded: S. sanguinis

Substance: PF-768 (GFRGGKRGGARG; Peptide with targeting and/or antimicrobial activity)
- Target(s) (microorganism bound by the targeting peptide) [1, 3]: S. epidermidis; also recorded: S. pneumoniae; also recorded: E. faecalis; also recorded: C. jeikeium

Substance: PF-236 (KEIRTATVAELNAKRRLTSAEQALAEVS; Peptide with targeting and/or antimicrobial activity)
- Target(s) [1, 4]: S. mutans; also recorded: S. epidermidis; also recorded: E. coli; also recorded: C. albicans; also recorded: S. pneumoniae; also recorded: E. faecalis

Substance: PF-265 (MKTLFFPLFLIIFVLIIQALDQSYQKKIGISKPQKHPEFMQ; Peptide with targeting and/or antimicrobial activity)
- Target(s) [1, 4]: S. epidermidis; also recorded: M. luteus; also recorded: A. baumannii

Substance: 1T-195 (AASGFTYCASNGVWHPY; Peptide with targeting and/or antimicrobial activity) [Peptide 1T-195]
- Target(s) [1, 6]: S. mutans

Substance: PF-C160 (AASGFTYCASNGVWHPY; Peptide with targeting and/or antimicrobial activity)
- Target(s) (microorganism bound by the targeting peptide) [1, 3]: F. nucleatum

Substance: 1T-219 (RNINVSATFITEKSLV; Peptide with targeting and/or antimicrobial activity) [Peptide 1T-219]
- Target(s) [1, 6]: S. sanguinis

Substance: PF-438 (QPYFQNQFKKITGYTPLQYRKEKR; Peptide with targeting and/or antimicrobial activity)
- Target(s) (microorganisms bound by the targeting peptide) [1, 3]: S. epidermidis; also recorded: E. coli; also recorded: S. pneumoniae; also recorded: C. jeikeium; also recorded: C. jejuni

Substance: 1T-16 (IDMR; Peptide with targeting and/or antimicrobial activity) [Peptide 1T-16]
- Target(s) (microorganism bound by the targeting peptide) [1, 5]: P. aeruginosa

Substance: 1T-196 (KPEKEKLDTNTLMKVVNKALSLFDRLLIKFGA; Peptide with targeting and/or antimicrobial activity) [Peptide 1T-196]
- Target(s) [1, 6]: F. nucleatum; also recorded: S. sanguinis

Substance: 1T-56 (LALIGAGIWMIRKG; Peptide with targeting and/or antimicrobial activity) [Peptide 1T-56]
- Target(s) (microorganism bound by the targeting peptide) [1, 5]: C. xerosis; also recorded: P. aeruginosa

Substance: 1T-30 (GKAKPYQVRQVLRAVDKLETRRKKGGR; Peptide with targeting and/or antimicrobial activity) [Peptide 1T-30]
- Target(s) (microorganism bound by the targeting peptide) [1, 5]: S. aureus; also recorded: S. epidermidis; also recorded: C. xerosis; also recorded: C. striatum; also recorded: P. aeruginosa

Substance: PF-785 (MRPQHSPAGKAFVVKKITHEQS; Peptide with targeting and/or antimicrobial activity)
- Target(s) (microorganism bound by the targeting peptide) [1, 3]: Mycobacteria spp.

Substance: PF-506 (SGRGFALIVVLFILLIIVGAACIR; Peptide with targeting and/or antimicrobial activity)
- Target(s) (microorganisms bound by the targeting peptide) [1, 3]: S. mutans; also recorded: E. coli

Substance: PF-C050 (QGLARPVLRRIPL; Peptide with targeting and/or antimicrobial activity)
- Target(s) (microorganism bound by the targeting peptide) [1, 3]: A. naeslundii; also recorded: S. mutans

Substance: 1T-43 (DRCLSVLSWSPPKVSPLI; Peptide with targeting and/or antimicrobial activity) [Peptide 1T-43]
- Target(s) (microorganism bound by the targeting peptide) [1, 5]: C. jeikium; also recorded: P. aeruginosa

Substance: 1T-9 (WAWAESPRCVSTRSNIHALAFRVEVAALT; Peptide with targeting and/or antimicrobial activity) [Peptide 1T-9]
- Target(s) (microorganism bound by the targeting peptide) [1, 5]: M. xanthus
